Assay [1] has as its system DDC-induced cholestatic liver disease mice. The assay can be described thus: H&E histology of portal vein and bile duct lesions, preventive β-lapachone in DDC-induced cholestatic liver disease mice. It counts as in vivo. The method, then:
DDC-induced cholestatic liver disease mouse animal models were prepared according to the method of Elisa Pose et al. by using 8-week-old C57BL/6 male mice (Samtako, Korea). Briefly, cholestatic liver disease was induced by feeding a standard rodent diet supplemented with 0.1% (w/w) DDC for 7 or 14 days. The 12-hour light and dark cycle was maintained and animals were allowed to free access to water. The standard rodent diet included medium wheat, wheat, corn, and corn gluten flour, and soybean oil (14% protein). All animal related procedures were reviewed and approved by the Institutional Animal Care and Use Committee of Korea Research Institute of Bioscience and Biotechnology (KRIBB), KRIBB-AEC-20165). The tissue staining of the cholestatic liver disease animal models was measured through H&E staining (basic tissue staining), Sirius Red staining (collagen staining), and Masson's trichrome staining (collagen, cytoplasm, muscle fibers, etc.), and the tissue staining was measured by a skilled researcher. After the mice were fed a diet containing 0.1% DDC for 14 days, tissue staining was performed for inflammation, fibrosis, and adhesion molecules around the portal vein, and the results are shown in FIG. 1. […]

Another assay relates to fibrosis-related genes. The assay can be described thus: Real-time PCR of fibrosis-related genes in liver tissue, preventive β-lapachone in DDC mice (Example 2.3). It counts as in vivo. The settings on record: DDC-BL40 and DDC-BL80 vs DDC-vehicle, DDC 14 days. The procedure: DDC-induced cholestatic liver disease mouse animal models were prepared according to the method of Elisa Pose et al. by using 8-week-old C57BL/6 male mice (Samtako, Korea). Briefly, cholestatic liver disease was induced by feeding a standard rodent diet supplemented with 0.1% (w/w) DDC for 7 or 14 days. The 12-hour light and dark cycle was maintained and animals were allowed to free access to water. The standard rodent diet included medium wheat, wheat, corn, and corn gluten flour, and soybean oil (14% protein). All animal related procedures were reviewed and approved by the Institutional Animal Care and Use Committee of Korea Research Institute of Bioscience and Biotechnology (KRIBB), KRIBB-AEC-20165). To investigate the preventive effect of β-Lapachone (BL) on cholestatic liver disease, the mice were fed a diet with 0 (DDC-vehicle), 40 mg/kg (DDC-BL40) and 80 mg/kg (DDC-BL80) 3 days before DDC treatment (total 17 days) and, after 3 days, were fed a diet with DDC (total 14 days). After 14 days of DDC treatment, the mice were sacrificed and the liver was harvested including the portal vein (PV) and bile ducts of the mice, and the surrounding lesions were confirmed by H&E, and are shown in FIG. 1. The expression of the factors in the liver tissue obtained from the cholestatic liver disease mouse animal models of Example 2.1 was performed by a real-time polymerase chain reaction was performed according to the following procedure. Total RNA from liver samples was extracted using Tri-RNA Reagent (Favrogen BIOTECH CORP, Nong-Ke Rd, Taiwan) according to the procedure presented by Favrogen, and was reverse transcribed into cDNA by using PrimeScript™ RT reagent Kit with gDNA Eraser (TAKARA Korea Biomedical Inc, Seoul, 08506, Korea). Quantitative PCR was performed using TB Green™ Premix Ex Taq™ II (Tli RNaseH Plus), ROX plus (TAKARA Korea Biomedical Inc, Seoul, 08506, Korea) and QuantStudio 5 Real-Time PCR Instrument (Thermo Fisher Scientific, Waltham, MA, USA).
For orientation: In qPCR the cycle at which signal appears reflects the starting amount.

Assay [2] has as its system inflammatory cytokine factors in the colon tissue. Kind of assay: mRNA levels of inflammatory cytokine factors in colon tissue of DSS mice (Example 6.2). It counts as in vivo. The settings on record: DSS + β-lapachone 80 mg/kg. The procedure: After 8-week-old C57BL/6 female mice (Samtako, Korea) were divided into each group (=10), each experimental group was fed a standard rodent diet supplemented with 3% (w/w) DSS in drinking water for the first 5 days to induce acute colitis and orally administered control (vehicle), β-lapachone 40 mg/kg, and β-lapachone 80 mg/kg for 14 days.
By the same method as in Example 6.1, experimental groups were divided into a DSS untreated group (Control), a DSS treated group, and a DSS+β-lapachone 80 mg/kg treated group, respectively, and treated. After the end of the experiment, the mice were sacrificed to remove the colon, and the accurate colon length was measured using a Vernier caliper, and is shown FIGS. 11A and 11B. In addition, the mRNA levels of genes of interleukin-1beta (IL-1β), interleukin-6 (IL-6), interleukin-18 (IL-18), interferon-γ (INF-γ), tumor necrosis factor-α (TNF-α), tumor necrosis factor-β (TNF-β), and monocyte chemoattractant protein-1 (MCP-1), which were inflammatory cytokine factors in the colon tissue, were analyzed by a real-time polymerase chain reaction through a conventional experiment procedure, and are shown in FIG. 12.

The subject of the next assay is macrophage line Raw264.7. Kind of assay: IL-1β and TNF-α release (ELISA) from LPS and ATP treated Raw264.7 macrophages. The settings on record: Raw264.7, LPS 100 ng/ml, 0.2, 0.5, 1, 2 μM β-lapachone 24 hours, ATP 2.5 mM 30 minutes. It counts as cell-based. The method, then: The macrophage line Raw264.7 (ATCC TIB-71, Manassas, VA, USA) was subcultured in DMEM supplemented with 10% FBS and 1% penicillin/streptomycin.
For inflammation induction, RAW264.7 cells were suspended in DMEM containing 2% FBS, inoculated in a 12-well plate to a cell number of 4×10^5/ml, and incubated in 5% CO2 incubator at 37° C. for 24 hours. With replacement with fresh media, the cells were treated with appropriate concentrations of a corresponding substance, LPS (100 ng/ml), and 0.2, 0.5, 1, and 2 μM β-lapachone, cultured for 24 hours, treated with ATP (2.5 mM), and then cultured for additional 30 minutes, and the supernatant was collected. The release of cytokines (IL-1β and TNF-α) of RaW264.7 macrophages was quantified using each cell-free supernatant-ELISA set (Invitrogen, Billerica, MA, USA) by Invitrogen according to the manufacture's instruction, and is shown in FIG. 14.
On the technique in general: An ELISA detects its analyte on a solid surface through an enzyme-linked reagent.

As for `CC1(C)CCC2=C(O1)c1ccccc1C(=O)C2=O` [β-lapachone], in assay [1] (80 mg/kg (BL80) compared with 40 mg/kg (BL40)), the “concentration dependence of lesion reduction of portal vein and bile ducts (H&E)” value was “reduced the lesions of the DDC-treated portal vein and bile ducts depending on the concentration thereof”. The “lesions around the portal vein (PV) and bile ducts (H&E)” value in assay [1] (DDC-BL40 and DDC-BL80 (40 and 80 mg/kg in diet from 3 days before DDC, total 17 days; DDC 14 days) vs DDC-vehicle) is on record as “significant lesion reductions”. Further, in the assay on fibrosis-related genes, the “transcriptional level of Co|1α1 in liver” value is reported as “significantly reduced”, the “transcriptional level of Co|4α1 in liver” value is given as “significantly reduced”, the “transcriptional level of TGF-β1 in liver” value was “significantly reduced” and the “transcriptional level of fibronectin in liver” value was “significantly reduced”. For the same compound, the “transcriptional level of α-SMA in liver” value in the assay with fibrosis-related genes is reported as “significantly reduced”. Also, in assay [2], the “mRNA level of IL-1β in colon tissue” value was “significantly reduced”, the “mRNA level of IL-6 in colon tissue” value is “significantly reduced”, the “mRNA level of IL-18 in colon tissue” value was “significantly reduced” and the “mRNA level of INF-γ in colon tissue” value is on record as “significantly reduced”. Besides, in assay [2], the “mRNA level of MCP-1 in colon tissue” value was “significantly reduced”, the “mRNA level of TNF-α in colon tissue” value was “significantly reduced” and the “mRNA level of TNF-β in colon tissue” value was “significantly reduced”. Also, in the assay on macrophage line Raw264.7, the “expression level of IL-1β protein increased by LPS and ATP” value is listed as “reduced depending on the concentration”; the “expression level of TNF-α protein increased by LPS and ATP” value is “reduced depending on the concentration”.

Source of the values: patent publication US20240115545A1, “PHARMACEUTICAL COMPOSITION CONTAINING B-LAPACHONE AS ACTIVE INGREDIENT FOR PREVENTION OR TREATMENT OF CHOLESTATIC LIVER DISEASE” (CUROME BIOSCIENCES CO., LTD., priority 2020, published 2024).
